US9260448B2, “Thienopyrimidinone derivatives as mGluR1 antagonists” (KOREA INSTITUTE OF SCIENCE AND TECHNOLOGY, priority 2013, dated 2016)

Target: mGluR1 (Homo sapiens, UniProt Q13255)
Assay: mGluR1 activity screening using FDSS6000 (intracellular calcium, L-Glutamate stimulation)
Assay type: cell-based
Conditions: Chem3 Cell Line (HTS145C:Millipore) stably expressing mGluR1, L-Glutamate 30 μM, Ca2+ fluorescent dye, read-out: IC50 (nM) against mGluR1
Procedure: mGluR1 Activity Screening Method Using FDSS6000
Cells of Chem3 Cell Line (HTS145C:Millipore) in which mGluR1 was stably expressed were adjusted to a density of 2×10^6/ml. 50 μl of the cells were plated in each well of a 96-well plate, and stabilized at 5% CO2 and 37° C. for 1 hr. The cells were allowed to react with an HBSS buffer containing a Ca^2+ fluorescent dye (FLIPR Calcium 5 assay kit: Molecular Devices) under the conditions of 5% CO2 and 37° C. for 30 min. As a result of the reaction, the cells were labeled with the fluorescent dye. Separately from the 96-well plate containing the fluorescently labeled cells, another 96-well plate was prepared that contained L-Glutamate (final concentration=30 μM) activating mGluR1 and a blocking drug to be screened. Most cell-based HTS systems have liquid application systems necessary for drug injection but no liquid inhalation systems. For this reason, 25 μl of each of the blocking drug and L-Glutamate was prepared at a 6-fold higher concentration in an HBSS buffer and diluted 6-fold in the final volume […] of the cell plate before measurement. Specifically, after drug pretreatment for 75 sec following recording the reference value at 20 sec, a change in intracellular calcium concentration caused by L-glutamate administration was measured using FDSS6000. The inhibitory effect of the test substance was expressed as a percent (%) relative to the area of the 480 nm/520 nm ratio in a control group untreated with the test substance. 10 μM PCTC20001 was always used as the control drug.
For detailed imaging of calcium, the cells were selectively exposed to an excitation wavelength (480 nm) from four xenon light sources mounted in FDSS6000 through a computer-controlled filter wheel. Data were recorded at 1.23-sec intervals. Emitter fluorescence light entering through a 520 nm long-pass filter was allowed to pass through a cooled CCD camera mounted in the system. An average 480 nm/520 nm ratio was obtained in each well of the 96-well plate using a digital fluorescence analyzer. All imaging data were collected and analyzed with the help of a dedicated program for FDSS6000 (Hamamatsu Photonics).
Measurement of IC50 Values Against mGluR1
The IC50 values (nM) of the novel compounds of Formula 1 according to the present invention against mGluR1 are shown in Table 1.

mGluR1, sequence (Q13255 19-1194): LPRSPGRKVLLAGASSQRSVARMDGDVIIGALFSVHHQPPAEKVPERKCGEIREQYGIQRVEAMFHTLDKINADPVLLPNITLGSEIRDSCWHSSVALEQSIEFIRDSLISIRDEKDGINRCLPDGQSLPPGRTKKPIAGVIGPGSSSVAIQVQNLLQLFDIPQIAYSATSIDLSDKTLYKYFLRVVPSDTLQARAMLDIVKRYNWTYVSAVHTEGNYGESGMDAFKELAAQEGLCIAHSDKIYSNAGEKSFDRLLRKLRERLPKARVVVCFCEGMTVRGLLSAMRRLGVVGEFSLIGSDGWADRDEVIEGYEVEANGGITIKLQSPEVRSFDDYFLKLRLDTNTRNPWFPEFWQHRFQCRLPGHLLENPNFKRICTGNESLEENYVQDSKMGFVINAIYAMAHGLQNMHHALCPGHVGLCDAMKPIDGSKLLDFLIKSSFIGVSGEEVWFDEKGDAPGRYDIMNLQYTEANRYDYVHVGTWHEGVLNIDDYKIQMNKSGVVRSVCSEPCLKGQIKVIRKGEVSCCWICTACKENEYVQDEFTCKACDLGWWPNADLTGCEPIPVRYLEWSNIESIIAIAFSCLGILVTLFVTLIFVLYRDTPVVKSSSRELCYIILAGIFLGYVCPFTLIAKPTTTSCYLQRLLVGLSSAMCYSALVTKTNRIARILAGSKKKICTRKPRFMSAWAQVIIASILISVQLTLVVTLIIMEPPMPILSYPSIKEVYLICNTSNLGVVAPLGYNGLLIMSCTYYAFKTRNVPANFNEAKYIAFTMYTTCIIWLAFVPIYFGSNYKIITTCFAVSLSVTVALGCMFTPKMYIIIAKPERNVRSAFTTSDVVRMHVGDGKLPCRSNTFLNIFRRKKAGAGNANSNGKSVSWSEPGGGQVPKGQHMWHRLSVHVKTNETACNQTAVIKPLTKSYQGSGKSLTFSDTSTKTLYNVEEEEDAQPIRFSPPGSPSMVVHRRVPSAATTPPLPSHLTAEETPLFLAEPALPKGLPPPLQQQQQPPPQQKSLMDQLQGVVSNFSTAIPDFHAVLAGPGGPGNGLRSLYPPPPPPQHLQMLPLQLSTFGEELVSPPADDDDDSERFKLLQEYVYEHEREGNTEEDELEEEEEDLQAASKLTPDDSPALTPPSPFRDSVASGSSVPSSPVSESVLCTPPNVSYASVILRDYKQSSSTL

Structure (SMILES): O=c1c2scc(-c3ccccc3F)c2ncn1-c1ccc(Cl)cc1 [Compound 32, 3-(4-Chlorophenyl)-7-(2-fluorophenyl)thieno[3,2-d]pyrimidin-4(3H)-one]
- IC50: 30 nM

Structure (SMILES): COc1ccc(-n2c(C)nc3c(-c4ccccc4)csc3c2=O)cc1 [Compound 74, 3-(4-Methoxyphenyl)-2-methyl-7-phenylthieno[3,2-d]pyrimidin-4(3H)-one]
- IC50: 564 nM

Structure (SMILES): Cc1ccc(-c2csc3c(=O)n(-c4ccc(Cl)cc4)cnc23)cc1 [Compound 58, 3-(4-Chlorophenyl)-7-(p-tolyl)thieno[3,2-d]pyrimidin-4(3H)-one]
- IC50: 80 nM

Structure (SMILES): C=Cc1cccc(-n2cnc3c(-c4ccccc4)csc3c2=O)c1 [Compound 29, 7-Phenyl-3-(3-vinylphenyl)thieno[3,2-d]-pyrimidin-4(3H)-one]
- IC50: 74 nM

Structure (SMILES): O=c1c2scc(-c3ccccc3)c2ncn1-c1ccc(Cl)cc1 [Compound 7, 3-(4-Chlorophenyl)-7-phenylthieno[3,2-d]pyrimidin-4(3H)-one]
- IC50: 66 nM

Structure (SMILES): O=c1c2scc(-c3ccc4c(c3)OCO4)c2ncn1-c1ccc(Cl)cc1 [Compound 68, 7-(Benzo[d][1,3]dioxol-5-yl)-3-(4-chlorophenyl)thieno[3,2-d]pyrimidin-4(3H)-one]
- IC50: 447 nM

Structure (SMILES): O=c1c2scc(-c3ccccc3)c2ncn1-c1cccc(Cl)c1 [Compound 6, 3-(3-Chlorophenyl)-7-phenylthieno[3,2-d]pyrimidin-4(3H)-one]
- IC50: 58 nM

Structure (SMILES): COc1ccc(-n2cnc3c(-c4ccc(C)cc4)csc3c2=O)cc1 [Compound 59, 3-(4-Methoxyphenyl)-7-(p-tolyl)thieno[3,2-d]pyrimidin-4(3H)-one]
- IC50: 661 nM

Structure (SMILES): COc1ccc(-n2cnc3c(-c4ccc5c(c4)OCO5)csc3c2=O)cc1 [Compound 69, 7-(Benzo[d][1,3]dioxol-5-yl)-3-(4-methoxyphenyl)thieno[3,2-d]pyrimidin-4(3H)-one]
- IC50: 1990 nM

Structure (SMILES): O=c1c2scc(-c3ccccc3)c2ncn1-c1ccccc1F [Compound 2, 3-(2-Fluorophenyl)-7-phenylthieno[3,2-d]pyrimidin-4(3H)-one]
- IC50: 407 nM

Structure (SMILES): Cc1ccc(-n2cnc3c(-c4ccccc4)csc3c2=O)cc1 [Compound 18, 7-Phenyl-3-p-tolylthieno[3,2-d]pyrimidin-4(3H)-one]
- IC50: 112 nM
